Experimental data taken from patent US20230085307A1, “PYRIDAZINONE COMPOUND AND HERBICIDE” (NISSAN CHEMICAL CORPORATION, priority 2019, published 2023).

Key:
Italian ryegrass [1] = assay: Test Example 5: herbicidal effect by foliage application, plastic box (Table 20, symbol K); assay type: in vivo, Italian ryegrass (Lolium multiflorum); conditions: foliage application, 320 g/ha, three weeks after application
How it was run: (§1)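 Plants were sown into sterilized diluvial soil under about 1.5 cm cover and kept in a greenhouse at 25° C. to 30° C. Fourteen days on, foliage received an even spray of the diluted emulsion. Herbicidal or crop effect was judged three weeks afterwards.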

velvetleaf = assay: Test Example 5: herbicidal effect by foliage application, plastic box (Table 20, symbol M); assay type: in vivo, velvetleaf (Abutilon theophrasti); conditions: foliage application, 320 g/ha, three weeks after application
How it was run: as §1

windgrass [2] = assay: Test Example 4: herbicidal effect by soil treatment (Table 19, symbol L); assay type: in vivo, windgrass (Apera spica-venti); conditions: amount of applied herbicide 320 g/ha
How it was run: (§2)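 In this soil treatment, the formulated compound reached the seeds only through the soil: seeds were buried about 1.5 cm deep in sterilized diluvial soil, then the diluted emulsion was sprayed over the surface. After three weeks at 25° C. to 30° C. in a greenhouse, effects were graded on criteria from an earlier test.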

Italian ryegrass [3] = assay: Test Example 4: herbicidal effect by soil treatment (Table 19, symbol K); assay type: in vivo, Italian ryegrass (Lolium multiflorum); conditions: amount of applied herbicide 320 g/ha
How it was run: as §2

southern crabgrass = assay: Test Example 5: herbicidal effect by foliage application, plastic box (Table 20, symbol F); assay type: in vivo, southern crabgrass (Digitaria ciliaris); conditions: foliage application, 320 g/ha, three weeks after application
How it was run: as §1

persian speedwell [4] = assay: Test Example 5: herbicidal effect by foliage application, plastic box (Table 20, symbol R); assay type: in vivo, Persian speedwell (Veronica persica); conditions: foliage application, 320 g/ha, three weeks after application
How it was run: as §1

barnyard grass [5] = assay: Test Example 3: herbicidal effect by foliage application, Wagner pot (Table 18, symbol H); assay type: in vivo, barnyard grass (Echinochloa crus-galli); conditions: 320 g/ha
How it was run: (§3)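 Plants were sown in alluvial soil held under 0.1–0.5 cm standing water and grown 14 days in a greenhouse at 25–30 °C. An emulsifiable formulation, water-diluted to the set dose, was then sprayed onto the foliage, and effects were scored three weeks later using previously defined criteria.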

lambsquarters [6] = assay: Test Example 4: herbicidal effect by soil treatment (Table 19, symbol O); assay type: in vivo, lambsquarters (Chenopodium album); conditions: amount of applied herbicide 320 g/ha
How it was run: as §2

green foxtail = assay: Test Example 5: herbicidal effect by foliage application, plastic box (Table 20, symbol G); assay type: in vivo, green foxtail (Setaria viridis); conditions: foliage application, 320 g/ha, three weeks after application
How it was run: as §1

persian speedwell [7] = assay: Test Example 4: herbicidal effect by soil treatment (Table 19, symbol R); assay type: in vivo, Persian speedwell (Veronica persica); conditions: amount of applied herbicide 320 g/ha
How it was run: as §2

Chinese sprangletop = assay: Test Example 3: herbicidal effect by foliage application, Wagner pot (Table 18, symbol D); assay type: in vivo, chinese sprangletop (Leptochloa chinensis); conditions: 320 g/ha
How it was run: as §3

late watergrass = assay: Test Example 1: herbicidal activity, application before weed generation under submerged conditions (Table 16, symbol A); assay type: in vivo, late watergrass (Echinochloa oryzicola); conditions: amount of applied herbicide 320 g/ha
How it was run: (§4)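 Emulsion formulation, water-diluted to set dose, was put onto the flooded surface (4 cm depth, alluvial soil) the same day weeds were sown and 2.5-leaf rice transplanted. After 3 weeks at 25-30 °C under glass, each species was rated 0 (≤5% kill) to 5 (≥90% kill).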

windgrass [8] = assay: Test Example 5: herbicidal effect by foliage application, plastic box (Table 20, symbol L); assay type: in vivo, windgrass (Apera spica-venti); conditions: foliage application, 320 g/ha, three weeks after application
How it was run: as §1

barnyard grass [9] = assay: Test Example 4: herbicidal effect by soil treatment (Table 19, symbol H); assay type: in vivo, barnyard grass (Echinochloa crus-galli); conditions: amount of applied herbicide 320 g/ha
How it was run: as §2

lambsquarters [10] = assay: Test Example 5: herbicidal effect by foliage application, plastic box (Table 20, symbol O); assay type: in vivo, lambsquarters (Chenopodium album); conditions: foliage application, 320 g/ha, three weeks after application
How it was run: as §1

false cleavers [11] = assay: Test Example 5: herbicidal effect by foliage application, plastic box (Table 20, symbol Q); assay type: in vivo, false cleavers (Galium spurium); conditions: foliage application, 320 g/ha, three weeks after application
How it was run: as §1

false cleavers [12] = assay: Test Example 4: herbicidal effect by soil treatment (Table 19, symbol Q); assay type: in vivo, false cleavers (Galium spurium); conditions: amount of applied herbicide 320 g/ha
How it was run: as §2

oval-leafed pondweed = assay: Test Example 1: herbicidal activity, application before weed generation under submerged conditions (Table 16, symbol C); assay type: in vivo, oval-leafed pondweed (Monochoria vaginalis); conditions: amount of applied herbicide 320 g/ha
How it was run: as §4

corn = assay: Test Example 4: effect on crop by soil treatment (Table 19, symbol c); assay type: in vivo; conditions: amount of applied herbicide 320 g/ha
How it was run: as §2

directly sowed rice = assay: Test Example 3: effect on crop by foliage application, Wagner pot (Table 18, symbol b); assay type: in vivo; conditions: 320 g/ha
How it was run: as §3

rapeseed [13] = assay: Test Example 4: effect on crop by soil treatment (Table 19, symbol g); assay type: in vivo; conditions: amount of applied herbicide 320 g/ha
How it was run: as §2

soybean = assay: Test Example 4: effect on crop by soil treatment (Table 19, symbol d); assay type: in vivo; conditions: amount of applied herbicide 320 g/ha
How it was run: as §2

rapeseed [14] = assay: Test Example 5: effect on crop by foliage application, plastic box (Table 20, symbol g); assay type: in vivo; conditions: 320 g/ha, three weeks after application
How it was run: as §1

SMILES | K: Italian ryegrass, herbicidal effect grade (Italian ryegrass [1]) | M: velvetleaf, herbicidal effect grade (velvetleaf) | L: windgrass, herbicidal effect grade (windgrass [2]) | K: Italian ryegrass, herbicidal effect grade (Italian ryegrass [3]) | F: southern crabgrass, herbicidal effect grade (southern crabgrass) | R: persian speedwell, herbicidal effect grade (persian speedwell [4]) | herbicidal effect on barnyard grass (H) (barnyard grass [5]) | O: lambsquarters, herbicidal effect grade (lambsquarters [6]) | G: green foxtail, herbicidal effect grade (green foxtail) | R: persian speedwell, herbicidal effect grade (persian speedwell [7]) | herbicidal effect on Chinese sprangletop (D) (Chinese sprangletop) | Herbicidal effect, A: late watergrass (late watergrass) | L: windgrass, herbicidal effect grade (windgrass [8]) | H: barnyard grass, herbicidal effect grade (barnyard grass [9]) | O: lambsquarters, herbicidal effect grade (lambsquarters [10]) | Herbicidal effect, C: oval-leafed pondweed (oval-leafed pondweed) | c: corn, effect on crop grade (corn) | effect on directly sowed rice (b) (directly sowed rice) | g: rapeseed, effect on crop grade (rapeseed [13]) | d: soybean, effect on crop grade (soybean) | further results
CCCC(=O)Oc1c(C)nn(C)c(=O)c1-c1c(-c2ccc(F)cc2OCC)sc2cc(OCC)ccc12 [3-096] | 3 (Herbicidal rate of 40% or more and less than 70%) | 5 (Herbicidal rate of 90% or more (almost completely withered)) | 5 (Herbicidal rate of 90% or more (almost completely withered)) | 2 (Herbicidal rate of 20% or more and less than 40%) | 5 (Herbicidal rate of 90% or more (almost completely withered)) | 5 (Herbicidal rate of 90% or more (almost completely withered)) | 5 (Herbicidal rate of 90% or more (almost completely withered)) | 5 (Herbicidal rate of 90% or more (almost completely withered)) | 4 (Herbicidal rate of 70% or more and less than 90%) | 5 (Herbicidal rate of 90% or more (almost completely withered)) | 5 (Herbicidal rate of 90% or more (almost completely withered)) | 5 (Herbicidal rate of 90% or more (almost completely withered)) | 5 (Herbicidal rate of 90% or more (almost completely withered)) | 0 (Herbicidal rate of 5% or less (almost no effect)) | 5 (Herbicidal rate of 90% or more (almost completely withered)) | 5 (Herbicidal rate of 90% or more (almost completely withered)) | – | – | – | – | Q: false cleavers, herbicidal effect grade (false cleavers [11]): 5 (Herbicidal rate of 90% or more (almost completely withered)); Q: false cleavers, herbicidal effect grade (false cleavers [12]): 5 (Herbicidal rate of 90% or more (almost completely withered))
COc1ccc2c(-c3c(O)c(Cl)nn(C)c3=O)c(-c3ccccc3OC)sc2c1 [Compound No. 3-088, 6-chloro-5-hydroxy-4-(6-methoxy-2-(2-methoxyphenyl)benzo[b]thiophen-3-yl)-2-methylpyridazin-3(2H)-one] | 0 (Herbicidal rate of 5% or less (almost no effect)) | 4 (Herbicidal rate of 70% or more and less than 90%) | 0 (Herbicidal rate of 5% or less (almost no effect)) | 0 (Herbicidal rate of 5% or less (almost no effect)) | 0 (Herbicidal rate of 5% or less (almost no effect)) | 5 (Herbicidal rate of 90% or more (almost completely withered)) | 5 (Herbicidal rate of 90% or more (almost completely withered)) | 5 (Herbicidal rate of 90% or more (almost completely withered)) | 5 (Herbicidal rate of 90% or more (almost completely withered)) | 4 (Herbicidal rate of 70% or more and less than 90%) | 4 (Herbicidal rate of 70% or more and less than 90%) | 5 (Herbicidal rate of 90% or more (almost completely withered)) | 3 (Herbicidal rate of 40% or more and less than 70%) | 5 (Herbicidal rate of 90% or more (almost completely withered)) | 4 (Herbicidal rate of 70% or more and less than 90%) | 5 (Herbicidal rate of 90% or more (almost completely withered)) | 0 (Herbicidal rate of 5% or less (almost no effect)) | 0 (Herbicidal rate of 5% or less (almost no effect)) | 5 (Herbicidal rate of 90% or more (almost completely withered)) | 1 (Herbicidal rate of 5% or more and less than 20%) | g: rapeseed, effect on crop grade (rapeseed [14]): 5 (Herbicidal rate of 90% or more (almost completely withered))
COc1ccccc1-c1sc2cc(OCC(F)(F)F)ccc2c1-c1c(O)c(C)nn(C)c1=O [Compound No. 3-116, 5-hydroxy-4-(2-(2-methoxyphenyl)-6-(2,2,2-trifluoroethoxy)benzo[b]thiophen-3-yl)-2,6-di methylpyridazin-3 (2H)-one] | 5 (Herbicidal rate of 90% or more (almost completely withered)) | 5 (Herbicidal rate of 90% or more (almost completely withered)) | 4 (Herbicidal rate of 70% or more and less than 90%) | 5 (Herbicidal rate of 90% or more (almost completely withered)) | 5 (Herbicidal rate of 90% or more (almost completely withered)) | 5 (Herbicidal rate of 90% or more (almost completely withered)) | 5 (Herbicidal rate of 90% or more (almost completely withered)) | 5 (Herbicidal rate of 90% or more (almost completely withered)) | 5 (Herbicidal rate of 90% or more (almost completely withered)) | 5 (Herbicidal rate of 90% or more (almost completely withered)) | 5 (Herbicidal rate of 90% or more (almost completely withered)) | 5 (Herbicidal rate of 90% or more (almost completely withered)) | 5 (Herbicidal rate of 90% or more (almost completely withered)) | 5 (Herbicidal rate of 90% or more (almost completely withered)) | 5 (Herbicidal rate of 90% or more (almost completely withered)) | 5 (Herbicidal rate of 90% or more (almost completely withered)) | 0 (Herbicidal rate of 5% or less (almost no effect)) | 5 (Herbicidal rate of 90% or more (almost completely withered)) | 5 (Herbicidal rate of 90% or more (almost completely withered)) | 1 (Herbicidal rate of 5% or more and less than 20%) | g: rapeseed, effect on crop grade (rapeseed [14]): 5 (Herbicidal rate of 90% or more (almost completely withered))
